How the values were obtained:
Assay in all cases: imazapyr whole plant greenhouse test (Example 2)
Type in all cases: in vivo
[1] = system: sunflower line L4, A122T; settings: dose 6 (6x, 480 g ai/ha)
Description: (§1) Seeds were sown in Petri dishes and, after germination, plantlets were transplanted to pots of 10 cm of diameter in a potting media consisting of equal parts of vermiculite, soil and sand. Plants were grown in a greenhouse under natural light conditions supplemented with 400 W sodium halide lamps to provide a 16 hr daylength. Day/night temperatures were 25 and 20 ° C., respectively. At the V2-V4 stage (Schneiter & Miller (1981) Crop Sci. 21:901-903) 10 plants of each genotype were randomly assigned to each treatment consisting of eight imazapyr doses (0, 40, 80, 160, 240, 320, 400 and 480 g ai/ha, corresponding to untreated, 0.5×, 1×, 2×, 3×, 4×, 5× and 6×, respectively), and a zero-time biomass determination. Experiment was arranged as a randomized block design with a full factorial (sunflower line×treatment) arrangement of treatments and 10 replications.
(§2) On the day of herbicide application ten plants of each genotype were cut at the cotyledonal node and dried at 60° C. for 48 hrs for zero-time dried weight determination.
(§3) The remaining plants were maintained for 14 days after imazapyr treatment (DAT) and their height, Phytotoxicity Index (PI) and above ground dry biomass were determined Height was determined as the distance between the cotyledonal node and the apex of each plant. Above ground biomass data from each line were converted to biomass accumulation after application by subtracting the appropriate average zero- time biomass from each sample. Dry biomass data were converted to percentages of the untreated control plants within each line to allow direct comparisons between groups.

[2] = system: sunflower line L3 (cmsGM40), A122T
Description: as §1, §2, §3

[3] = system: sunflower hybrid H4 (L1 × L4), A205V + A122T
Description: as §1, §2, §3

[4] = system: sunflower hybrid H3 (L3 × L2), A205V + A122T
Description: as §1, §2, §3

## CC(C)C1(C)N=C(c2ncccc2C(=O)O)NC1=O (stereo not shown) [imazapyr]
[1]
  plant height 14 days after treatment, % of untreated: 79.8%
[2]; dose 0.5 (0.5x, 40 g ai/ha)
  Phytotoxicity Index (0-9) 14 days after treatment: 0.4
  biomass accumulation 14 days after treatment, % of untreated: 96.6%
  plant height 14 days after treatment, % of untreated: 100.4%
[2]; dose 1 (1x, 80 g ai/ha)
  Phytotoxicity Index (0-9) 14 days after treatment: 0.4
  biomass accumulation 14 days after treatment, % of untreated: 93.9%
  plant height 14 days after treatment, % of untreated: 99.9%
[2]; dose 2 (2x, 160 g ai/ha)
  Phytotoxicity Index (0-9) 14 days after treatment: 0.4
  biomass accumulation 14 days after treatment, % of untreated: 81.6%
  plant height 14 days after treatment, % of untreated: 92.0%
[2]; dose 3 (3x, 240 g ai/ha)
  Phytotoxicity Index (0-9) 14 days after treatment: 0.5
  biomass accumulation 14 days after treatment, % of untreated: 75.8%
  plant height 14 days after treatment, % of untreated: 90.5%
[2]; dose 4 (4x, 320 g ai/ha)
  Phytotoxicity Index (0-9) 14 days after treatment: 1.0
  biomass accumulation 14 days after treatment, % of untreated: 75.0%
  plant height 14 days after treatment, % of untreated: 90.8%
[2]; dose 5 (5x, 400 g ai/ha)
  Phytotoxicity Index (0-9) 14 days after treatment: 2.0
  biomass accumulation 14 days after treatment, % of untreated: 60.1%
  plant height 14 days after treatment, % of untreated: 84.4%
[2]; dose 6 (6x, 480 g ai/ha)
  Phytotoxicity Index (0-9) 14 days after treatment: 2.5
  biomass accumulation 14 days after treatment, % of untreated: 59.6%
  plant height 14 days after treatment, % of untreated: 84.4%
[3]; dose 0.5 (0.5x, 40 g ai/ha)
  Phytotoxicity Index (0-9) 14 days after treatment: 0.0
  biomass accumulation 14 days after treatment, % of untreated: 99.479%
  plant height 14 days after treatment, % of untreated: 100.0%
[3]; dose 1 (1x, 80 g ai/ha)
  Phytotoxicity Index (0-9) 14 days after treatment: 0.0
  biomass accumulation 14 days after treatment, % of untreated: 97.8%
  plant height 14 days after treatment, % of untreated: 99.6%
[3]; dose 2 (2x, 160 g ai/ha)
  Phytotoxicity Index (0-9) 14 days after treatment: 0.0
  biomass accumulation 14 days after treatment, % of untreated: 92.2%
  plant height 14 days after treatment, % of untreated: 100.0%
[3]; dose 3 (3x, 240 g ai/ha)
  Phytotoxicity Index (0-9) 14 days after treatment: 0.0
  biomass accumulation 14 days after treatment, % of untreated: 88.2%
  plant height 14 days after treatment, % of untreated: 100.0%
[3]; dose 4 (4x, 320 g ai/ha)
  Phytotoxicity Index (0-9) 14 days after treatment: 0.0
  biomass accumulation 14 days after treatment, % of untreated: 85.0%
  plant height 14 days after treatment, % of untreated: 95.0%
[3]; dose 5 (5x, 400 g ai/ha)
  Phytotoxicity Index (0-9) 14 days after treatment: 0.2
  biomass accumulation 14 days after treatment, % of untreated: 78.7%
  plant height 14 days after treatment, % of untreated: 87.2%
[3]; dose 6 (6x, 480 g ai/ha)
  Phytotoxicity Index (0-9) 14 days after treatment: 0.0
  biomass accumulation 14 days after treatment, % of untreated: 71.8%
  plant height 14 days after treatment, % of untreated: 65.5%
[4]; dose 0.5 (0.5x, 40 g ai/ha)
  Phytotoxicity Index (0-9) 14 days after treatment: 0.5
  biomass accumulation 14 days after treatment, % of untreated: 99.804%
  plant height 14 days after treatment, % of untreated: 98.7%
[4]; dose 1 (1x, 80 g ai/ha)
  Phytotoxicity Index (0-9) 14 days after treatment: 0.5
  biomass accumulation 14 days after treatment, % of untreated: 100.0%
  plant height 14 days after treatment, % of untreated: 97.0%
[4]; dose 2 (2x, 160 g ai/ha)
  Phytotoxicity Index (0-9) 14 days after treatment: 0.5
  biomass accumulation 14 days after treatment, % of untreated: 94.3%
  plant height 14 days after treatment, % of untreated: 96.7%
[4]; dose 3 (3x, 240 g ai/ha)
  Phytotoxicity Index (0-9) 14 days after treatment: 0.5
  biomass accumulation 14 days after treatment, % of untreated: 90.8%
  plant height 14 days after treatment, % of untreated: 93.8%
[4]; dose 4 (4x, 320 g ai/ha)
  Phytotoxicity Index (0-9) 14 days after treatment: 0.5
  biomass accumulation 14 days after treatment, % of untreated: 87.8%
  plant height 14 days after treatment, % of untreated: 92.0%
[4]; dose 5 (5x, 400 g ai/ha)
  Phytotoxicity Index (0-9) 14 days after treatment: 0.6
  biomass accumulation 14 days after treatment, % of untreated: 72.1%
  plant height 14 days after treatment, % of untreated: 65.4%
[4]; dose 6 (6x, 480 g ai/ha)
  Phytotoxicity Index (0-9) 14 days after treatment: 1.0
  biomass accumulation 14 days after treatment, % of untreated: 63.2%
  plant height 14 days after treatment, % of untreated: 58.0%
